From ChEMBL document CHEMBL1201862, “PubChem BioAssay data set” (2004)
The source made the active and inactive calls.

Legend:
Cytochrome P450 2C19 = Cytochrome P450 2C19 (Homo sapiens, UniProt P33261); assay: Cytochrome panel assay with activity outcomes. Panel member name: p450-cyp2c19 Compounds with AC50 equal or less than 10 uM are considered active; assay type: functional
Cytochrome P450 3A4 = Cytochrome P450 3A4 (Homo sapiens, UniProt P08684);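 also: CYP3A4 tested as one member of a cytochrome P450 panel screen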
[1] = target: T1, Replicative DNA helicase DnaB (Mycobacterium tuberculosis, UniProt P9WMR3); assay: DnaB intein splicing inhibitors, dose response, biochemical, cell-free fluorescence (AID 449749); assay type: functional
T1 sequence (P9WMR3 whole entry): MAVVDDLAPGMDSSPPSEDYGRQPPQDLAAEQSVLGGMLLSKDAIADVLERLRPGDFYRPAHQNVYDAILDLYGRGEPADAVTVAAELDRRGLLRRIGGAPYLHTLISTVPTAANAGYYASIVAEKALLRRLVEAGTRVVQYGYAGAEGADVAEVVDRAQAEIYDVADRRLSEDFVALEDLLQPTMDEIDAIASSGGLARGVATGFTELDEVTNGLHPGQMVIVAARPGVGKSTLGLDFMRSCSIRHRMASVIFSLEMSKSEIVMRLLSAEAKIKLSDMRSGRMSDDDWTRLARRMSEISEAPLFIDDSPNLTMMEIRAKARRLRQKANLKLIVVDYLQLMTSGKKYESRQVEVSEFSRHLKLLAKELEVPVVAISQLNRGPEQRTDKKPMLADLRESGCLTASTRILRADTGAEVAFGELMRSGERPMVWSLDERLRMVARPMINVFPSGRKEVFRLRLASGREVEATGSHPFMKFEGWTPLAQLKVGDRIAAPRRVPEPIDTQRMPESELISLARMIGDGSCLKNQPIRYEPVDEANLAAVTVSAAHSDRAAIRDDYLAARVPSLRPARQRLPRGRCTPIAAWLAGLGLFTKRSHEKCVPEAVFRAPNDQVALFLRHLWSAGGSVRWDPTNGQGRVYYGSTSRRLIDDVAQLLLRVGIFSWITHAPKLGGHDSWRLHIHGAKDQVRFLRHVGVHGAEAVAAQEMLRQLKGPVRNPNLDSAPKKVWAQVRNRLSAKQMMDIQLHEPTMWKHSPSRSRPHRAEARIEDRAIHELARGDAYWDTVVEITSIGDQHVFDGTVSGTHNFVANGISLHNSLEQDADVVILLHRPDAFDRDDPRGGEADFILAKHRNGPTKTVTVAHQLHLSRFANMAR

Protein RecA = target: T2, Protein RecA (Mycobacterium tuberculosis, UniProt P9WHJ3); assay: Fluorescence Cell-Free Homogeneous Dose Retest to Identify Inhibitors of RecA-Intein Splicing Activity. [Related pubchem assays (depositor defined):AID2097, AID2223, AID489010, AID492950]; assay type: functional
T2 sequence (P9WHJ3 whole entry): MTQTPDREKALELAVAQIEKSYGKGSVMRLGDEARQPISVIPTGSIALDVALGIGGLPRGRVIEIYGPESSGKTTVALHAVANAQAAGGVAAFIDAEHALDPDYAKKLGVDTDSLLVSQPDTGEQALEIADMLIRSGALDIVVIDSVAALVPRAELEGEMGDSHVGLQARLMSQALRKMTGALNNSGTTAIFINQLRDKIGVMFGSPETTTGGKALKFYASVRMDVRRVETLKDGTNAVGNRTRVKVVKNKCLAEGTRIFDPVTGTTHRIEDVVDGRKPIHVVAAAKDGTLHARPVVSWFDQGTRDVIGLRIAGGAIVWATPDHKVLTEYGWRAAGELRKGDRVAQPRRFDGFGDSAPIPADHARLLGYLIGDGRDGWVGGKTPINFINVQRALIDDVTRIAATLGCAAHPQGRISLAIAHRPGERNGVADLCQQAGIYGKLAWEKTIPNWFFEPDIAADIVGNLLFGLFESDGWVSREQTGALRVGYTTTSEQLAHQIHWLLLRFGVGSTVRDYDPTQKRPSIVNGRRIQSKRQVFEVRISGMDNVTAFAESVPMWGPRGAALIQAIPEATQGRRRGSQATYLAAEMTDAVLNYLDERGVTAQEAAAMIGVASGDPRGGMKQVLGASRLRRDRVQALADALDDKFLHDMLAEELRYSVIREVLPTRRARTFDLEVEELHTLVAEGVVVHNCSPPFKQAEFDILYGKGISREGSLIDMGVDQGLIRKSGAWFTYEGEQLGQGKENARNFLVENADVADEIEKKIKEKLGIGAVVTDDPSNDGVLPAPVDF

[2] = target: T3, Heat shock factor protein 1 (Mus musculus, UniProt P38532); assay: inhibition of MG132-induced HSE-luciferase signal, confirmation, cell-based, NIH3T3, luminescence, dose retest (AID 2382); assay type: functional;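 also: NIH3T3 fibroblasts with HSF1-driven luciferase reporter stressed by proteasome inhibitor MG132; luminescence from HSF1-driven luciferase expression after 8 hours of MG132 stress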
T3 sequence (P38532 whole entry): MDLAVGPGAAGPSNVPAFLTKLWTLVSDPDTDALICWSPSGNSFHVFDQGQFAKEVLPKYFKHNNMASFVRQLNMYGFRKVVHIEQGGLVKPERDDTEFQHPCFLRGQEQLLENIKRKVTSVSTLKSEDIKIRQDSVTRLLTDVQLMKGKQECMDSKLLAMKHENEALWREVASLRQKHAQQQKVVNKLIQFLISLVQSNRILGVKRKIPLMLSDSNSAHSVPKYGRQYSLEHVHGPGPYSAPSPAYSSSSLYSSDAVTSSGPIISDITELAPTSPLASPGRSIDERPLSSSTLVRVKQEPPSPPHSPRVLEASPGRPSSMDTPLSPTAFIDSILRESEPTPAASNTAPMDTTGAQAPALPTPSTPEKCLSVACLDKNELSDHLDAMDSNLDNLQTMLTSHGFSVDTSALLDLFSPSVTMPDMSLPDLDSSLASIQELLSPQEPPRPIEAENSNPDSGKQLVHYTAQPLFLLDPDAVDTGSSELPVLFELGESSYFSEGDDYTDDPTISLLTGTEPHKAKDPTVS

Cytochrome P450 1A2 = target: T4, Cytochrome P450 1A2 (Homo sapiens, UniProt P05177);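 also: PubChem cytochrome P450 panel assay, CYP1A2 panel member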
T4 sequence (P05177 whole entry): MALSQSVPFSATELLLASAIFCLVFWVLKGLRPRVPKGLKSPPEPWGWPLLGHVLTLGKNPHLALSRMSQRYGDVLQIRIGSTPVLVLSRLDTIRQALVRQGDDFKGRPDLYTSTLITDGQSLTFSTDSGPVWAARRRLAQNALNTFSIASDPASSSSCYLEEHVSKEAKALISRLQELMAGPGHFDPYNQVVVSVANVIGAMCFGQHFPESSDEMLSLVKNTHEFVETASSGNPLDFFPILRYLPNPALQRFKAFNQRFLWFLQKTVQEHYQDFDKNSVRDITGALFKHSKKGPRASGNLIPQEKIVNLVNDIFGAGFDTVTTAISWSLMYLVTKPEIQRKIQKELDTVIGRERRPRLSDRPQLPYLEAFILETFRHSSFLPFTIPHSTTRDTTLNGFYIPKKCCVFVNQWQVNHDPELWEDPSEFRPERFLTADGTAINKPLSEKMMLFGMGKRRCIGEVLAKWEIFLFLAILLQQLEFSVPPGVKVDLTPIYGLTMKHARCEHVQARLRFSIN

Sequence of Cytochrome P450 2C19 (P33261 whole entry): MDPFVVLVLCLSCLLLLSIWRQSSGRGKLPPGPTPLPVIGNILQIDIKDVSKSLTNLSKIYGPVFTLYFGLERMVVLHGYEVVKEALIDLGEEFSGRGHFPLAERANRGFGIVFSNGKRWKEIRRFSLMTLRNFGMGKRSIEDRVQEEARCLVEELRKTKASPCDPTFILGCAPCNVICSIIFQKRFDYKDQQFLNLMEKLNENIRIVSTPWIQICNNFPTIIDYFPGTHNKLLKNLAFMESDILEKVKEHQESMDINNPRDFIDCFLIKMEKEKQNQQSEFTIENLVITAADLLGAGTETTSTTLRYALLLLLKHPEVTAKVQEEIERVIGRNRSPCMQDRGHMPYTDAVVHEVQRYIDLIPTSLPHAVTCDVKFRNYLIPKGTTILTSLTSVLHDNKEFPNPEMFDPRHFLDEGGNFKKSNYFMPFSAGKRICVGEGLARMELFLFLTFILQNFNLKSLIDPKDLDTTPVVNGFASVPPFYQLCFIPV
Sequence of Cytochrome P450 3A4 (P08684 whole entry): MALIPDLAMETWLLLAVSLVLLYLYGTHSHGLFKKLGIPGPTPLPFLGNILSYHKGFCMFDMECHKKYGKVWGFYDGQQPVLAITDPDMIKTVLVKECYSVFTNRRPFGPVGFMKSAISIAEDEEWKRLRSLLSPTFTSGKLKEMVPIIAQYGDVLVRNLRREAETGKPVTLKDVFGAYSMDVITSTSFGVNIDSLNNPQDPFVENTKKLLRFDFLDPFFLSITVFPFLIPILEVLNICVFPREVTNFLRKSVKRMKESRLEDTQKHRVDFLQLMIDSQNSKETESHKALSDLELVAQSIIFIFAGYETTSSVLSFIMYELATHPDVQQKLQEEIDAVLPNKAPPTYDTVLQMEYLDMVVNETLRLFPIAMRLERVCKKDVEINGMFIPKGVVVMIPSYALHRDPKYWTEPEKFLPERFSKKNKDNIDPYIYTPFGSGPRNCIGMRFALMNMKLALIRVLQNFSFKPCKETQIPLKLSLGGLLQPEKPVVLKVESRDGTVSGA

COc1ccc(-c2nc(CSCC(=O)NCC3CCCO3)c(C)o2)cc1OC (centres undefined)
AC50 (Cytochrome P450 2C19; read-out: AC50): 31.6 µM (inconclusive)
AC50 (Cytochrome P450 3A4): 39.8 µM (inconclusive)

O=C1C(Cl)=C(N2CCCCCC2)C(=O)N1c1ccccc1
AC50 [1]: > 380 µM (inactive)
EC50 (Protein RecA): 10.3 µM (active)

COc1ccc(-c2noc(CCC(=O)Nc3ccc(C)c(C)c3)n2)cc1
EC50 [2]: > 195 µM (not active)

O=C(NC(=S)NC1C2CC3CC(C2)CC1C3)c1ccccc1 (centres undefined)
EC50 [2]: > 195 µM (not active)

N[C@]1(C(=O)O)CCc2cc(P(=O)(O)O)ccc21
AC50 (Cytochrome P450 2C19; read-out: AC50): 15.8 µM (inconclusive)
AC50 (Cytochrome P450 1A2): 39.8 µM (inconclusive)

O=C(c1ccco1)N1CCN=C1SCc1ccccc1F
EC50 [2]: > 195 µM (not active)

CC(=O)c1c(N2CCC(C(N)=O)CC2)nc(=S)n(-c2ccccc2)c1C
AC50 (Cytochrome P450 2C19; read-out: AC50): 31.6 µM (inconclusive)

O=C(CSC(=S)N1CCOCC1)Nc1nc(-c2ccccc2)c(-c2ccccc2)o1
EC50 [2]: > 195 µM (not active)

COC1(OC)N=C(NC(=O)Nc2ccccc2)C2(C#N)C(c3ccccc3)C12C#N (centres undefined)
AC50 (Cytochrome P450 2C19; read-out: AC50): 5.01 µM (inconclusive)
AC50 (Cytochrome P450 1A2): 39.8 µM (inconclusive)

CN1CCN(Cc2cc(=O)oc3ccc(Cl)cc23)CC1
AC50 [1]: > 380 µM (inactive)
EC50 (Protein RecA): > 380 µM (inactive)

CCOC(=O)N1CCN(C(=O)c2ccc(CS(=O)(=O)c3c(Cl)cccc3Cl)o2)CC1
EC50 [2]: > 195 µM (not active)

Cn1cc(-c2nc3cnc(N4CCOCC4)nc3n(C3CC3)c2=O)c2ccccc21
AC50 (Cytochrome P450 2C19): inconclusive
AC50 (Cytochrome P450 1A2): 3.16 µM (inconclusive)
AC50 (Cytochrome P450 3A4): 7.94 µM (inconclusive)

O=C(CN1C(=O)c2ccccc2S1(=O)=O)NCc1cccs1
EC50 [2]: > 195 µM (not active)

Cc1ccc(Cn2c(C3CCCN3c3nc(C)cs3)nc3cc(C(F)(F)F)ccc32)cc1 (centres undefined)
EC50 [2]: > 195 µM (not active)

Fc1ccc(Oc2nc(-c3ccccc3)nnc2C(F)(F)F)cc1
AC50 [1]: 2.95 µM (active)
EC50 (Protein RecA): 2.28 µM (active)

O=C(c1cc(F)c(F)cc1Cl)N1CCN(c2ccc([N+](=O)[O-])c3ncccc23)CC1
AC50 [1]: 3.47 µM (active)
EC50 (Protein RecA): 11.8 µM (active)

CCCC[C@@H](CNC)NC[C@H](Cc1ccc(O)cc1)NCCc1ccc(OCC)cc1
EC50 [2]: > 195 µM (not active)

Cc1ccc(SC(C)C(=O)NCc2cccnc2)cc1 (centres undefined)
AC50 (Cytochrome P450 2C19; read-out: AC50): 7.08 µM (inconclusive)
AC50 (Cytochrome P450 3A4): 1 µM (inconclusive)

COC(=O)c1cc(NC(=O)Nc2ccccc2OC)cc(C(=O)OC)c1
EC50 (Protein RecA): > 380 µM (inactive)

O=C(c1cccs1)[C@@H]1[C@@H]2C(=O)N(Cc3ccc4c(c3)OCO4)C(=O)[C@@H]2C2c3ccccc3C=CN21 (some centres undefined)
AC50 [1]: 4.09 µM (active)
EC50 (Protein RecA): 3.22 µM (active)

O=C(O)c1cccc2cc(-c3ccccc3)oc(=O)c12
EC50 [2]: > 195 µM (not active)

CCOC(=O)CSc1nc(C)cc(Oc2ccc(=O)n(C)n2)n1
EC50 [2]: 28.1 µM (active)

O=C(O)CCCNC(=O)CCCNC(=O)C(c1ccccc1)c1ccccc1
EC50 [2]: > 195 µM (not active)

COc1ccc(CNC(=O)CCCCCNC(=O)N2CCn3c2nc2ccccc23)cc1
EC50 [2]: > 195 µM (not active)

Cc1n[nH]c(O)c1C(c1cc2c(cc1Br)OCO2)c1c(C)n[nH]c1O
AC50 [1]: 0.723 µM (active)
EC50 (Protein RecA): 0.352 µM (active)

O=C(Oc1ccc(OC(=O)c2ccco2)c(S(=O)(=O)c2ccc(Br)cc2)c1)c1ccco1
AC50 (Cytochrome P450 2C19; read-out: AC50): 1.41 µM (inconclusive)
AC50 (Cytochrome P450 1A2): 2.24 µM (inconclusive)
AC50 (Cytochrome P450 3A4): 5.62 µM (inconclusive)

Cc1ccc2c(c1)c1c(n2CC(O)CN2CCOCC2)CCCC1 (centres undefined)
EC50 [2]: > 195 µM (not active)

Cc1ccc(S(=O)(=O)N2CCN(S(C)(=O)=O)C2)cc1
EC50 [2]: > 195 µM (not active)

CCOc1cc(/C=C2\C(=O)N(CCC#N)N=C2C)ccc1OCC(N)=O
AC50 [1]: 6.01 µM (active)
EC50 (Protein RecA): 3.61 µM (active)

N#CCCn1c(=O)c(CCc2ccccc2)nc2cnc(OCc3ccccc3)nc21
AC50 (Cytochrome P450 2C19; read-out: AC50): 39.8 µM (inconclusive)
AC50 (Cytochrome P450 1A2): 12.6 µM (inconclusive)
AC50 (Cytochrome P450 3A4): 0.2 µM (inconclusive)

N#C[C@H]1[C@H](c2ccccc2)[C@](C#N)(C(=O)c2ccccc2)[C@@H]2C=Cc3ccccc3N21
AC50 [1]: > 380 µM (inactive)
EC50 (Protein RecA): 8.36 µM (active)

CCSc1c([N+](=O)[O-])c(=O)n(-c2ccccc2)c2ccccc12
AC50 [1]: 3.94 µM (active)
EC50 (Protein RecA): 155 µM (active)

O=C(O)c1cccc(Cn2c(Cl)c(/C=N/Nc3ccccc3)sc2=O)c1
AC50 [1]: > 380 µM (inactive)
EC50 (Protein RecA): > 380 µM (inactive)

CCOc1cc(/C=N/NC(=O)CN2CCCCC2)ccc1OCc1ccccc1
AC50 (Cytochrome P450 2C19; read-out: AC50): 25.1 µM (inconclusive)

N#C/C(=N\O)c1nc(-c2ccccc2)cs1
AC50 (Cytochrome P450 2C19; read-out: AC50): 39.8 µM (inconclusive)
AC50 (Cytochrome P450 3A4): 15.8 µM (inconclusive)

COc1cc(/C=N/NC(=O)c2ccc(F)cc2)ccc1OC(=O)c1ccco1
AC50 [1]: 24 µM (active)
EC50 (Protein RecA): 20 µM (active)

COc1ccc(-c2cc(C(=O)NCc3cccnc3)no2)cc1OC
AC50 (Cytochrome P450 2C19; read-out: AC50): 28.2 µM (inconclusive)
